The term IC50 denotes the concentration needed to halve the response being measured. Read a low IC50 as higher potency. Broadly, the AUC is the area under the concentration-time curve, a measure of exposure. A word on the MRT: it is a mean duration of stay, worked out from the concentration-time curve. For orientation: Cmax means the highest concentration seen after dosing.

Molecules are shown by their SMILES.

The target of one series is human ROMK channel (Homo sapiens (Human), UniProt P48048). As to the kind of experiment: FluxOR potassium ion channel assay, human ROMK/HEK293 cells. Format: cell-based. As to the method: (§1) The method described hereafter was used for determining the inhibitory activity of the present compounds on human ROMK and rat ROMK channels.
Chain of human ROMK channel (P48048 whole entry): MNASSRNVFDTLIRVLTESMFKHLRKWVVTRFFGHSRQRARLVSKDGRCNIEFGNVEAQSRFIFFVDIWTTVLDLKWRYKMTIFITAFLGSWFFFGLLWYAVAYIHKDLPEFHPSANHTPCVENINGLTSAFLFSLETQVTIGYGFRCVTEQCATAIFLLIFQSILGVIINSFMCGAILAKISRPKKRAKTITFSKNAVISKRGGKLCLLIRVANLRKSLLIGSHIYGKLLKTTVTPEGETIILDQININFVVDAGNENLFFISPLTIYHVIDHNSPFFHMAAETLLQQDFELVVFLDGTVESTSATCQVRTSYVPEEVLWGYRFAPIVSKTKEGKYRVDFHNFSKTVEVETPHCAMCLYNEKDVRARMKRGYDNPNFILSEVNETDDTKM
(1) FluxOR™ potassium ion channel assay (F10016, Invitrogen)
(3) FlexStation3 microplate reader (Molecular Devices)
(4) Human ROMK/HEK293 cell: HEK293 cell line stably expressing the ROMK channel transfected by human ROMK cDNA (NCBI SEQ ID NO. NM-000220.4)
(§2) The inhibitory activity of the present compounds on human ROMK or rat ROMK channel was tested by the assay described above.

For another series, the target named is rat ROMK channel (Rattus norvegicus (Rat), UniProt P35560). Nature of the series: FluxOR potassium ion channel assay, rat ROMK/HEK293 cells. Format: cell-based.
Chain of rat ROMK channel (P35560 whole entry): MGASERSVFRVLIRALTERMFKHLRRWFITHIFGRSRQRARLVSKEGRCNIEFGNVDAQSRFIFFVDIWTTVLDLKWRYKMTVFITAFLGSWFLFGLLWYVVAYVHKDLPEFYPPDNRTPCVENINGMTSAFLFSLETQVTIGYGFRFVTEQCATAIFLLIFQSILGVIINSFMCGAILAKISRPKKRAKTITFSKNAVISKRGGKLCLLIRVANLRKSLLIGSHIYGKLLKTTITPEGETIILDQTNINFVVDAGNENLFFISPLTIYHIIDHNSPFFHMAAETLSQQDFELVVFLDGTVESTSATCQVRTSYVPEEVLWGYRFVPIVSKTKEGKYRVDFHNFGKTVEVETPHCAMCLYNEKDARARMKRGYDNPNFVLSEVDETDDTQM
From the text: as §1
(5) Rat ROMK/HEK293 cell: HEK293 cell line transfected by rat ROMK cDNA (NCBI SEQ ID NO. NM-017023.1) stably expressing the ROMK channel
The above procedures were repeated, except for replacing human ROMK/HEK293 cells with rat ROMK/HEK 293 cells, to determine the inhibition IC50 of the present compounds on rat ROMK channel.
as §2

Another series deals with SD rats. As to the kind of experiment: Diuretic efficacy of ROMK inhibitors in SD rats. In kind it is in vivo, rat. Particulars: for urinary sodium excretion increase compared with blank control group / urinary potassium compared with normal control group: 4 h; for urine output increase compared with blank control group: total urine in 4 h; for urinary potassium compared with normal control group / serum potassium change / serum sodium change: 0.03 and 0.1 mg/kg i.g. once; for serum potassium change / serum sodium change: P>0.05. Here is the method: The diuretic efficacy of compound 1 and positive control drug of ROMK inhibitor on SD rats was evaluated.
Male SD rats were purchased from SINO-BRITSH SIPPR/BK LAB. ANIMAL LTD., CO (Shanghai, China, Certificate No. 2008001647752, License SCXK (Shanghai) 2013-0016). The rats were 120-130 g, and fed at 5/cage, in a 12/12 hours light/dark cycle regulation, at a constant temperature of 23±1° C., humidity of 50˜60%, and free access to water and food. The male SD rats were acclimated to this condition for 7 days before their use in the diuresis experiment.
The experiment was carried out according to the method disclosed in PCT Patent Application Publication WO2010129379A1 After adaptive feeding, the rats were placed in metabolism cages and fasted overnight. The rats were weighed and randomly divided into the following groups: blank control group, compound 1 tested drug 0.03 mg/kg group and 0.1 mg/kg group, and the positive control group 0.03 mg/kg and group 0.1 mg/kg, with 10 rats for each group. Each rat was intragastrically administered each compound (ig, 1 ml/kg). The rats in the blank control group were fed with the corresponding solvent. After intragastric administration, the rats were placed in the normal cage. After 30 min, 25 ml/kg normal saline was given. Rats were put into the metabolic cages, and fasting for food and water began immediately. The total urine volume in 4 h was collected and measured. The urinary sodium and urinary potassium excretion in 4 h were also measured. The orbital serum was collected after the collection of urine to test the serum sodium and serum potassium concentrations.
The experimental data were expressed as mean±standard deviation (S.D.). The data was statistically compared using the t test of excel.

The nature of series [1]: Solubility observed when preparing the dosing formulation. Format: physicochemical. As to conditions: preparation of dosing formulation for the diuresis experiment. The text has this:
In this experiment, the solubility of the test compound 1 was very good. There was no delamination phenomenon. […] After fully grinding, the solubility improved. […] Moreover, the effect was dose-dependent for each dose of the test compound 1 and the positive control drug.

A further series concerns the target ROMK potassium channel (Homo sapiens (Human), UniProt P48048). As to the kind of experiment: Electrophysiological manual patch clamp on ROMK potassium channel (human ROMK/HEK293 cells). In kind it is cell-based. The text has this:
The experiment was designed to test the effect of compounds on ROMK potassium channel in HEK 293 in vitro. ROMK potassium channel is stably expressed on the HEK293 cells of the present application. After the potassium ion current was stabilized, the effect of the present compound on the potassium channel was obtained by comparing the potassium current obtained before and after the use of the present compound at different concentrations.
(2) Human ROMK/HEK293 cell: HEK293 cell line stably expressing the ROMK channel transfected by human ROMK cDNA (NCBI SEQ ID NO. NM-000220.4);
(3) Extracellular fluid (mM): NaCl, 137; KCl, 4; CaCl2, 1.8; MgCl2, 1; HEPES, 10; glucose, 10; pH 7.4 (NaOH titration); and
(4) Intracellular fluid (mM): K Aspartate, 130; MgCl2, 5; EGTA 5; HEPES, 10; Tris-ATP, 4; pH 7.2 (KOH titration).
Test compounds were dissolved in dimethyl sulfoxide (DMSO) and then stocked at room temperature. […]
A manual patch clamp system was used for whole-cell current record in this experiment. […] After the ROMK potassium current recorded in the above steps was stabilized under continuous perfusion with extracellular liquid in the recording bath, the drug to be tested was perfused until the inhibition of the drug on the ROMK current reached a steady state. […]
The data were analyzed by HEKA Patchmaster, XLFit and Graphpad Prism data analysis software.
On the technique in general: The patch-clamp technique gives a direct electrical read-out from membranes.

Series [2] in a line: Pharmacokinetics assay in SD rats, intragastric administration. In kind it is in vivo. As to conditions: both sexes, Sprague-Dawley, rat, plasma, oral 5 mg/kg. Here is the method: Rats were used as test animals. The drug concentration in plasma at different time points was determined by LC/MS/MS after administration of the compounds to rats. The pharmacokinetic behavior of the present compounds was studied and evaluated in rats.
Four (4) healthy adult Sprague-Dawley (SD) rats, half male and half female, were purchased from SINO-BRITSH SIPPR/BK LAB. ANIMAL LTD., CO, with Certificate No.: SCXK (Shanghai) 2008-0016.
The appropriate amount of the test compounds was weighed, and added with 0.5% CMC-Na to a final volume to prepare a 0.5 mg/mL suspension by ultrasonication.
Following fasting overnight, 4 SD rats, half male and half female were administered intragastrically a dose of 5.0 mg/kg and an administration volume of 10 mL/kg.
Blood (0.1 mL) was sampled from orbital sinus before administration and 0.5 h, 1.0 h, 2.0 h, 4.0 h, 6.0 h, 8.0 h, 11.0 h, and 24.0 h after administration. The samples were stored in EDTA anticoagulation tubes, and centrifuged for 10 minutes at 3,500 rpm to separate the blood plasma. The plasma samples were stored at −20° C. The rats were fed 2 hours after administration.
The plasma concentration of the test compounds in rats after intragastric administration was determined by LC-MS/MS. Plasma samples were analyzed after pretreatment by protein precipitation.

Chain of ROMK potassium channel (P48048 whole entry): as the sequence (P48048 whole entry) above

Turning to `CCOc1cc(C(=O)NC2CCN(C[C@H](O)c3ccc4c(c3C)COC4=O)CC2)ncc1C#N` [Example 2, (R)-5-cyano-4-ethoxy-N-(1-(2-hydroxy-2-(4-methyl-1-oxo-1,3-dihydroisobenzofuran-5-yl)ethyl)piperidin-4-yl)picolinamide], the results for the IC50 at human ROMK channel and on rat ROMK channel were 0.028 µM and 0.089 µM, respectively.

`Cc1cc(C(=O)NC2CCN(C[C@H](O)c3ccc4c(c3C)COC4=O)CC2)ncc1C#N` [positive control drug, reference compound]: in the series on SD rats (0.03 mg/kg i.g. once), the “urinary sodium excretion increase compared with blank control group” value (shortened to “urinary sodium excretion increase”) is given as 1.57 times and the “urine output increase compared with blank control group” value (“urine output increase” below) came out at 1.41 times. Moreover, in the series with SD rats (0.1 mg/kg i.g. once), the “urinary sodium excretion increase” value is on record as 1.65 times and the “urine output increase” value is reported as 1.46 times. Further, in the series on SD rats, the “urinary potassium compared with normal control group” value is listed as “slightly elevated, but not statistically significant”; the serum potassium change entry was “changed a little”; the serum sodium change result was “changed a little”. Also, the “solubility (in words)” value in series [1] was “poor solubility”.

As for `COc1cc(C(=O)NC2CCN(C[C@H](O)c3ccc4c(c3C)COC4=O)CC2)ncc1C#N` [Example 1, (R)-5-cyano-N-(1-(2-hydroxy-2-(4-methyl-1-oxo-1,3-dihydroisobenzofuran-5-yl)ethyl)piperidin-4-yl)-4-methoxypicolinamide], the 50% inhibitory concentration (IC50) against human ROMK channel was determined as 0.04 µM. Moreover, at rat ROMK channel, half-maximal inhibition (IC50) was put at 0.192 µM. At ROMK potassium channel, the midpoint of inhibition, the IC50, lay at 0.0187 µM. In series [2] (read-out: Apparent Distribution Volume Vz/F), the Vd/F was found to be 3.02 ± 0.841 L/kg. The AUC in series [2] (read-out: Area Under Curve AUC) came out at 9.28 ± 3.05 µg·h/mL. The CL/F in series [2] (read-out: Clearance CLz/F) was determined as 0.589 ± 0.21 L/h/kg. Also, the MRT in series [2] (read-out: Mean Residence Time MRT) was 5.51 ± 0.75 h. Moreover, the Cmax in series [2] (read-out: Plasma Conc. Cmax) was 1.33 ± 0.388 µg/mL. In the series on SD rats (0.03 mg/kg i.g. once), the “urinary sodium excretion increase” value was 3.12 times and the “urine output increase” value was 2.76 times. Moreover, in the series with SD rats (0.1 mg/kg i.g. once), the “urinary sodium excretion increase” value stood at 3.31 times and the “urine output increase” value is recorded as 3.22 times. In addition, in the series on SD rats, the “urinary potassium compared with normal control group” value is given as “slightly elevated, but not statistically significant”; the serum potassium change result is listed as “changed a little”; the serum sodium change entry is “changed a little”. Besides, the “solubility (in words)” value in series [1] was “very good”.

For the origin of these results see patent publication US10364234B2, “Pyridinecarboxamide derivatives, preparation method thereof and pharmaceutical uses thereof” (Jiangsu Hengrui Medicine Co., Ltd., priority 2014, dated 2019).
